target: EGFR (human) (UniProt P00533); assay: not given
Sequence (P00533 whole entry, looked up): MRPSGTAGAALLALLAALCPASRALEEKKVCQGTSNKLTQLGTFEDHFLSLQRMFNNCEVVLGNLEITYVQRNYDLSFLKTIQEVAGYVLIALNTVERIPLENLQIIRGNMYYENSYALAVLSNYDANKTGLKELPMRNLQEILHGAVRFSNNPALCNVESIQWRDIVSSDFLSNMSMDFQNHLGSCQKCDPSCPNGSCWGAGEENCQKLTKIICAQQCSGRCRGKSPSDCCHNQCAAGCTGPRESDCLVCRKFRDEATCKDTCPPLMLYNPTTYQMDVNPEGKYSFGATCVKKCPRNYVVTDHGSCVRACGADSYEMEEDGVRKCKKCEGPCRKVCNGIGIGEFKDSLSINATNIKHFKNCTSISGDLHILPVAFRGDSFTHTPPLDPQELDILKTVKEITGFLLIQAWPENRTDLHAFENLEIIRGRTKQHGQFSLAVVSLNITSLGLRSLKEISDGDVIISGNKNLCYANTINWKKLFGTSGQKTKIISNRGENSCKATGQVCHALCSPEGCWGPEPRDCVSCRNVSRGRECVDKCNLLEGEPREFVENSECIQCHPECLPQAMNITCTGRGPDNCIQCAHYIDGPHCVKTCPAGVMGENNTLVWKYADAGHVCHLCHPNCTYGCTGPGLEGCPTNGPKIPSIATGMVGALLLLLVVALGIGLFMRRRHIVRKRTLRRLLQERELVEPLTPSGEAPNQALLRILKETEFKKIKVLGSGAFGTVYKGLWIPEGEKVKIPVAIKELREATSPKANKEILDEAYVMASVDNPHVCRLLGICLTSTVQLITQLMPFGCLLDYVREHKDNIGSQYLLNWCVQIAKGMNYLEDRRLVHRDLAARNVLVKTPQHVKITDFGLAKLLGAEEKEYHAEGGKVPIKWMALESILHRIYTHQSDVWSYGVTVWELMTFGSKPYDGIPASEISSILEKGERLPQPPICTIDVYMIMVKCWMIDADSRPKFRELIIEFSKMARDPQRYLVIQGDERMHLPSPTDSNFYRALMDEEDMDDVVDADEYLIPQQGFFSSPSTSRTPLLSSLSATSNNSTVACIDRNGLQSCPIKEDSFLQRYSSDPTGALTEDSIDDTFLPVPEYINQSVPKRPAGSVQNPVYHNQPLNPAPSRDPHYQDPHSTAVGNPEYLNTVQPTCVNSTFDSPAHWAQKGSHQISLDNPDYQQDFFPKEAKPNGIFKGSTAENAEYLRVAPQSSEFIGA

Row | Ki [µM] | SMILES
1 | 0.251 | COc1cc2ncn(-c3cc(OCc4ccccc4C(F)(F)F)c(C(N)=O)s3)c2cc1OC

target: ROCK2 (human) (UniProt O75116); assay: Enzyme Assay
Sequence (O75116 whole entry, looked up): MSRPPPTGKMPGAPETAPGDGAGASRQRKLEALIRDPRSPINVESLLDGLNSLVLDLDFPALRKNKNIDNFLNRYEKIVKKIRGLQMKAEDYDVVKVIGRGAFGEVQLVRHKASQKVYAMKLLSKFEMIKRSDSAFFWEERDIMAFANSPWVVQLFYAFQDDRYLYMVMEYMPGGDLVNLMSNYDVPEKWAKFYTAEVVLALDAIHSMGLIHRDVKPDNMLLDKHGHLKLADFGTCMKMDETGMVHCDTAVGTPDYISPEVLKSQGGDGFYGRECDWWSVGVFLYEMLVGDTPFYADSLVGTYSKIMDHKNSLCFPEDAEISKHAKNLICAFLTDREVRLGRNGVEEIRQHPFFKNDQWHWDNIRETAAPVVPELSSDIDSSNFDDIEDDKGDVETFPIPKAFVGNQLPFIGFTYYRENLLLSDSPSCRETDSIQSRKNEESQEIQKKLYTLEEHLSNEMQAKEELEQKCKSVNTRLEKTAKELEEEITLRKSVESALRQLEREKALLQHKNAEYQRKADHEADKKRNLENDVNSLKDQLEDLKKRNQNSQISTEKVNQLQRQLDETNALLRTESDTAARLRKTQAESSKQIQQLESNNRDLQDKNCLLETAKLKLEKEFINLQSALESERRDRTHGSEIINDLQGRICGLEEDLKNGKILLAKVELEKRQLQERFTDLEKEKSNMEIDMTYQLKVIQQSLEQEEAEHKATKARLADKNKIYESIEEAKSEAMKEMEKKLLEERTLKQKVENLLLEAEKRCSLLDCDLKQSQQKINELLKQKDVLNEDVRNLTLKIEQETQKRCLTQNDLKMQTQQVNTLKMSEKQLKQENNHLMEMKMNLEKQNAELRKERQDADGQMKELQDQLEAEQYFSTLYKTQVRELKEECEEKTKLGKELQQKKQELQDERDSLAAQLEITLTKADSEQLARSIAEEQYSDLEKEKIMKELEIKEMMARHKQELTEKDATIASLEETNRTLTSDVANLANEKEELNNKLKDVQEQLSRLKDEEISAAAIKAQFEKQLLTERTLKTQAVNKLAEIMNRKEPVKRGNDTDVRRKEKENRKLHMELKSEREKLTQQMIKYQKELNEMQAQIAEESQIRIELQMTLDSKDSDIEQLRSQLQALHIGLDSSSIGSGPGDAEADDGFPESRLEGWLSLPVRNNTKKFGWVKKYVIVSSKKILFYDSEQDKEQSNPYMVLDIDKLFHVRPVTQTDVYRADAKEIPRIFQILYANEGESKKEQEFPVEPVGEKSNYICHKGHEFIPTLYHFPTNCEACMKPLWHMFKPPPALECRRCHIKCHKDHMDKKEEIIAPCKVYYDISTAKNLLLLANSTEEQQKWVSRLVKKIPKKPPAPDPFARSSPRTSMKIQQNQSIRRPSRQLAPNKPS

Row | Ki [µM] | SMILES
2 | > 7.94 | COc1cc2ncn(-c3cc(OCc4ccccc4C(F)(F)F)c(C(N)=O)s3)c2cc1OC
3 | > 1 | O=C(Nc1cc(-c2c[nH]c3ncccc23)cc(Cl)n1)c1ccccc1

target: MAPK14 (human) (UniProt Q16539); assay: Enzyme Assay
Sequence (Q16539 whole entry, looked up): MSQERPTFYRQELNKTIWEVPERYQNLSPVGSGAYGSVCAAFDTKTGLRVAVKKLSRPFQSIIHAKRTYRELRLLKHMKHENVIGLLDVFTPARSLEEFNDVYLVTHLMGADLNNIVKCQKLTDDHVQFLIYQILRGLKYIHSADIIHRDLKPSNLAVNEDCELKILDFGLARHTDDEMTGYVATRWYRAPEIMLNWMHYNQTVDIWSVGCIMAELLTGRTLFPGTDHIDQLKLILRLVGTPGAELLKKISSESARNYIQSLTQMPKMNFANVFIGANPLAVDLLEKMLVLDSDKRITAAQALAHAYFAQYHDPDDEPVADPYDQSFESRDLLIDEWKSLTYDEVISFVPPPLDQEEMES

Row | Ki [µM] | SMILES
4 | 2.51 | CC(C)(C)c1cc(NC(=O)c2cc3ccccc3s2)n(-c2ccc(OCC(=O)O)cc2)n1
5 | 0.1 | Cc1cc(=O)[nH]nc1-c1ccc(NC(=O)Nc2cc(C(F)(F)F)ccc2F)c(Cl)c1
6 | 0.794 | CC(C)(C)c1cc(NC(=O)c2cc3ccccc3s2)n(-c2cccc(OCC(=O)O)c2)n1
7 | 0.631 | CC(C)(C)c1cc(NC(=O)C(=O)c2cccc3ccccc23)n(-c2ccc(OCC(=O)NCCO)cc2)n1
8 | 50.1 | c1ccc(-c2ncc3ccccn23)cc1
9 | 3.16 | O=C(Nc1cc(-c2c[nH]c3ncccc23)cc(Cl)n1)c1ccccc1
10 | 7.94 | CC(=O)n1ncc2cc(N)ccc21
11 | 0.631 | CC(C)(C)c1cc(NC(=O)Nc2cccc3ccccc23)n(-c2cccc(C(=O)N(CCN)CCO)c2)n1
12 | 3.98 | O=C(Cc1cccs1)Nc1nc2ccccc2s1
13 | 2.51 | Nc1ccc2cc(NCCc3ccccc3)cc(Nc3ncccn3)c2n1
14 | 0.501 | COc1ccc(C2=NNc3cccc4c(OC)ccc2c34)cc1OC
15 | 0.631 | CC(C)(C)c1cc(NC(=O)C(=O)c2cccc3ccccc23)n(-c2ccc(OCCC(N)=O)cc2)n1
16 | 1 | CCC(=O)Nc1ccc(C(=O)N2CCNCC2)c(O)c1

Source: the Kinase Knowledgebase extract (Sharma et al. 2016)
